Measured values published in ChEMBL document CHEMBL1201862, “PubChem BioAssay data set” (2004).
Values belong to the compound of their own block, whether it stands above or below them. Calls of active or inactive are those of the source.

Key:
Cytochrome P450 2C9 = Cytochrome P450 2C9 (Homo sapiens, UniProt P11712)
Cytochrome P450 2C19 = Cytochrome P450 2C19 (Homo sapiens, UniProt P33261); experiment: Cytochrome panel assay with activity outcomes. Panel member name: p450-cyp2c19 Compounds with AC50 equal or less than 10 uM are considered active; assay type: functional; details: read-out: AC50
Sequence of Cytochrome P450 2C19 (P33261 whole entry): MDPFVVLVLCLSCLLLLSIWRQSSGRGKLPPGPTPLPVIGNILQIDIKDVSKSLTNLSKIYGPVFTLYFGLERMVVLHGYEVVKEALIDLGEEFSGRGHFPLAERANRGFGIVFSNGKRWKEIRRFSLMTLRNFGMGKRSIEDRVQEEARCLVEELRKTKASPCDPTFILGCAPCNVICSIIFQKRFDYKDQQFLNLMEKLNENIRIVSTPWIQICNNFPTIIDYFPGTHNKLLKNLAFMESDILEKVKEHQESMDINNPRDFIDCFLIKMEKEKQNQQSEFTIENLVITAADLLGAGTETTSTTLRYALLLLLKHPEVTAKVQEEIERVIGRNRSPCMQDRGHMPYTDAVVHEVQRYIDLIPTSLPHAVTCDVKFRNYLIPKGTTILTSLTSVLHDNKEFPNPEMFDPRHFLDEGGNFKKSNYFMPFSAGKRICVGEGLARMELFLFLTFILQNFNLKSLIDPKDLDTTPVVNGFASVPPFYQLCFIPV

[1] = target: T1, Ubiquitin-conjugating enzyme E2 N (Homo sapiens, UniProt P61088); assay type: functional;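 also: Dose-response confirmation in a TR-FRET assay detecting UBC13-driven polyubiquitin chain formation, inhibition measured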
T1 sequence (P61088 whole entry): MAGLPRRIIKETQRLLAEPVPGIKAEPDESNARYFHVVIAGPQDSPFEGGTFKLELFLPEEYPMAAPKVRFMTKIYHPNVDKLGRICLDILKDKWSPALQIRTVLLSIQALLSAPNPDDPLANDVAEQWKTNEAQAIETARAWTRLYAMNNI

[2] = target: T2, Calpain-2 catalytic subunit (Sus scrofa, UniProt P43367); experiment: m-calpain protease blockers, concentration series – biochemical, fluorogenic peptide substrate, dose response (AID 1420); assay type: functional
T2 sequence (P43367 whole entry): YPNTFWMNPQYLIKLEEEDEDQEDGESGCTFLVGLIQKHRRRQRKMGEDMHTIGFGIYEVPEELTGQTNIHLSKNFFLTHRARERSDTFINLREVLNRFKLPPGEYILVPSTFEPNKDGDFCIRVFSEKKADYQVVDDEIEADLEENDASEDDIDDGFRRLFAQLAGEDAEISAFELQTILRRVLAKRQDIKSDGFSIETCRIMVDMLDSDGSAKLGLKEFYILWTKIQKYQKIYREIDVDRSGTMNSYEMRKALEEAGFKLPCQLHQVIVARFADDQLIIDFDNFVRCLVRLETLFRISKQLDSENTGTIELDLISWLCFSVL

Leucine aminopeptidase = target: T3, Leucine aminopeptidase (Plasmodium falciparum 3D7, UniProt Q8IL11); experiment: P. falciparum M17LAP inhibitors, primary screen, biochemical, fluorogenic H-Leu-NHMec substrate, 1536-well (AID 1619); assay type: functional
T3 sequence (Q8IL11 whole entry): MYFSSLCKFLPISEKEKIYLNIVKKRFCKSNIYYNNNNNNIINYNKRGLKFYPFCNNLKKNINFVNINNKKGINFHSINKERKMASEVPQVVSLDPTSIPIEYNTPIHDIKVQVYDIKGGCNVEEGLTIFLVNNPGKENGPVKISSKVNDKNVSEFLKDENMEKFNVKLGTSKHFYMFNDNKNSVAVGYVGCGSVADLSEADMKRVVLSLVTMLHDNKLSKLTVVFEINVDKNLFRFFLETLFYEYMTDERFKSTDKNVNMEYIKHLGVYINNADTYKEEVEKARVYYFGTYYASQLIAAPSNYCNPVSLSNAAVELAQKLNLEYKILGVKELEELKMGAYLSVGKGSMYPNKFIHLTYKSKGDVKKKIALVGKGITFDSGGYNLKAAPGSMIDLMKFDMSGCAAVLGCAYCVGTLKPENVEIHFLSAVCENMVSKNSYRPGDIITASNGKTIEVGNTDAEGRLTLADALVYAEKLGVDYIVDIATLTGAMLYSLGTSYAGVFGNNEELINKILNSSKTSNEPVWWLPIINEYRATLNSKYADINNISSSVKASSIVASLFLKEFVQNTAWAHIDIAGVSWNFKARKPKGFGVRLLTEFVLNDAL

cells [3] = assay type: functional, cell-based
cells [4] = assay type: functional, cell-based; remark: listed apart in the source
[5] = fluconazole-exposed Candida albicans growth modulators – fluorescence, retest, confirmation (AID 2467); assay type: functional, cell-based
[6] = NIH-3T3 fibroblast cytotoxicity, dose response, cytotoxicity control, cell-based, fluorescence, Alamar Blue, secondary assay (AID 2327); assay type: functional;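 also: NIH-3T3 mouse fibroblasts cultured with fluconazole at 8 µg/mL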

Sequence of Cytochrome P450 2C9 (P11712 whole entry): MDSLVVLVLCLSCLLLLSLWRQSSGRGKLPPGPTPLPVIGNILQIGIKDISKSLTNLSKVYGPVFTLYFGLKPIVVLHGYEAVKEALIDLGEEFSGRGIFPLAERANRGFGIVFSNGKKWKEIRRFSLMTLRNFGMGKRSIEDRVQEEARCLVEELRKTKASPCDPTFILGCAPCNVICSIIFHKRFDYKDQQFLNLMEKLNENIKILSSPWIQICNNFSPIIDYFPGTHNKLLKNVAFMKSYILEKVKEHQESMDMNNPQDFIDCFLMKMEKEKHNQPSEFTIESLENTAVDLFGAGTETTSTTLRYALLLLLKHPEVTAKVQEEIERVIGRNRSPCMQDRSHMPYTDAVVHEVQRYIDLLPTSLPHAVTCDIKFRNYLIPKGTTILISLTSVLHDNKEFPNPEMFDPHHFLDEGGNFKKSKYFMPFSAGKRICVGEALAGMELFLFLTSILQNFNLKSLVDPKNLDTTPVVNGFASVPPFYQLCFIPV

SMILES: Cn1cc(CC(=O)N2CCN(c3ccc(Cl)cc3)CC2)c2ccccc21
EC50 (cells [3]): > 350 µM (not active) | EC50 (cells [4]): > 350 µM (not active)

SMILES: CC(=O)Nc1ccc(Nc2nc(C)c([N+](=O)[O-])c(Nc3ccc(NC(C)=O)cc3)n2)cc1
EC50 (cells [3]): > 350 µM (not active) | EC50 (cells [4]): > 350 µM (not active)

SMILES: O=C(O)c1cccc(CSc2nc(-c3ccccc3)cc(C(F)(F)F)n2)c1
EC50 [5]: 5.9 µM (active) | EC50 [6]: > 150 µM (inactive)

SMILES: Cc1c(O)c([S+]([O-])c2ccccc2)c(=O)n(-c2ccccc2)c1-c1ccccc1 (stereo not drawn)
IC50 (Leucine aminopeptidase): 15.1 µM (active)

SMILES: CC(=O)c1cc(C#N)c(N2CCCC2)nc1C
EC50 [5]: > 38 µM (not active) | EC50 [6]: > 160 µM (inactive)

SMILES: COc1ccc(C(=O)N(CN2CCCC2=O)c2ccc(C)cc2)cc1
EC50 [5]: > 38 µM (not active) | EC50 [6]: 66 µM (active)

SMILES: Cc1ccc(C(=O)Nc2ccc3c(c2)nc(CCNC(=O)c2ccco2)n3C)cc1
EC50 (cells [3]): > 350 µM (not active) | EC50 (cells [4]): > 350 µM (not active)

SMILES: CCCCN(C(=O)c1c(C)[nH]c(C(=O)OCC)c1C)c1ccccc1
EC50 (cells [3]): > 350 µM (not active) | EC50 (cells [4]): > 350 µM (not active)

SMILES: OCc1cc(O)c(OCc2ccccc2)cn1
EC50 (cells [3]): > 350 µM (not active) | EC50 (cells [4]): > 350 µM (not active)

Other lines, results leading:

AC50 (Cytochrome P450 2C9): inconclusive
SMILES: N#CCCn1c(=O)c(-c2ccc(Cl)cc2)nc2cnc(N3CCOCC3)nc21

AC50 (Cytochrome P450 2C19): 31.6 µM (inconclusive) | AC50 (Cytochrome P450 2C9): inconclusive
SMILES: C[C@H](NC(=O)/C(C#N)=C/c1ccc(O)c(O)c1)c1ccccc1

AC50 (Cytochrome P450 2C9): inconclusive
SMILES: CCCCN1CCC(n2c(=O)[nH]c3ccccc32)CC1

IC50 [1]: > 20 µM (inactive)
SMILES: COc1ccc(CN2C(=O)c3cccc4cccc2c34)cc1F

IC50 [2]: > 50 µM (not active)
SMILES: O=C(c1ccc(Cl)cc1Cl)N1CCC(c2nc(O)c3nnn(Cc4ccco4)c3n2)CC1

IC50 (Leucine aminopeptidase): 39.6 µM (active)
SMILES: CCSc1nnc(-c2ccccc2/N=C/c2c(C)nn(-c3ccccc3)c2O)c(O)n1

IC50 [2]: 27.1 µM (not active)
SMILES: C=CCNC(=S)N/N=C/c1ccc(C)s1

IC50 (Leucine aminopeptidase): 61.5 µM (active)
SMILES: OC1(c2cn(Cc3ccccc3)nn2)CCCCC1

IC50 (Leucine aminopeptidase): 7.08 µM (active)
SMILES: CCOc1ccc(Nc2nc(Cc3nnc(SCC(=O)O)o3)cs2)cc1

IC50 [2]: 20 µM (not active)
SMILES: CC(=O)Nc1ccc(Nc2ccc(S(=O)(=O)C(F)(F)F)cc2[N+](=O)[O-])cc1
